Test results: US20250325485A1, “STABLE COMPOSITIONS OF FOXY-5 HEXAPEPTIDE WITH HIGH SOLUBILITY” (WNTRESEARCH AB, priority 2021, published 2025)
Counter-ions that a name gives are not always drawn. Peptide text beside a SMILES is read from it. * marks the point of attachment. For = O=C*

Test: FIG. 10
Experimental: Table printed on a drawing sheet, FIG. 10
The patent's description of the figure: FIG. 10
First reader's note: Storage stability of Foxy-5 free acid and its salts shown as HPLC purity and impurity levels (Ala, aspartimide, dimer) initially and after 2 and 4 weeks at 40°C; decimal commas as printed.

SMILES	After 2 weeks @ 40°C | Ala (area%)	After 2 weeks @ 40°C | Aspartimide (area%)	After 2 weeks @ 40°C | Dimer (area%)	After 2 weeks @ 40°C | HPLC purity (area%)	After 4 weeks @ 40°C | Ala (area%)	After 4 weeks @ 40°C | Aspartimide (area%)	After 4 weeks @ 40°C | Dimer (area%)	After 4 weeks @ 40°C | HPLC purity (area%)
CSCC[C@H](NC=O)C(=O)N[C@@H](CC(=O)O)C(=O)NCC(=O)N[C@@H](CS)C(=O)N[C@@H](CCC(=O)O)C(=O)N[C@@H](CC(C)C)C(=O)O [DEA Di salt] (For-MDGCEL-OH)	0 area%	4,98 area%	1,18 area%	92,88 area%	0,25 area%	7,50 area%	3,10 area%	87,11 area%
CSCC[C@H](NC=O)C(=O)N[C@@H](CC(=O)O)C(=O)NCC(=O)N[C@@H](CS)C(=O)N[C@@H](CCC(=O)O)C(=O)N[C@@H](CC(C)C)C(=O)O [DEA Tri salt] (For-MDGCEL-OH)	1,91 area%	5,78 area%	8,10 area%	82,51 area%	1,82 area%	7,20 area%	5,80 area%	80,92 area%
CSCC[C@H](NC=O)C(=O)N[C@@H](CC(=O)O)C(=O)NCC(=O)N[C@@H](CS)C(=O)N[C@@H](CCC(=O)O)C(=O)N[C@@H](CC(C)C)C(=O)O [Foxy-5 free acid] (For-MDGCEL-OH)	0 area%	0,75 area%	0,00 area%	98,40 area%	0,00 area%	0,80 area%	0,00 area%	98,21 area%
CSCC[C@H](NC=O)C(=O)N[C@@H](CC(=O)O)C(=O)NCC(=O)N[C@@H](CS)C(=O)N[C@@H](CCC(=O)O)C(=O)N[C@@H](CC(C)C)C(=O)O [HIS Di salt] (For-MDGCEL-OH)	0 area%	1,97 area%	0,00 area%	97,40 area%	0,00 area%	2,40 area%	0,00 area%	96,52 area%
CSCC[C@H](NC=O)C(=O)N[C@@H](CC(=O)O)C(=O)NCC(=O)N[C@@H](CS)C(=O)N[C@@H](CCC(=O)O)C(=O)N[C@@H](CC(C)C)C(=O)O [HIS Tri salt] (For-MDGCEL-OH)	0 area%	1,97 area%	1,10 area%	96,41 area%	0,00 area%	2,43 area%	0,90 area%	95,32 area%
CSCC[C@H](NC=O)C(=O)N[C@@H](CC(=O)O)C(=O)NCC(=O)N[C@@H](CS)C(=O)N[C@@H](CCC(=O)O)C(=O)N[C@@H](CC(C)C)C(=O)O [LYS Di salt] (For-MDGCEL-OH)	0 area%	2,50 area%	0,00 area%	97,06 area%	0,47 area%	2,80 area%	0,55 area%	95,17 area%
CSCC[C@H](NC=O)C(=O)N[C@@H](CC(=O)O)C(=O)NCC(=O)N[C@@H](CS)C(=O)N[C@@H](CCC(=O)O)C(=O)N[C@@H](CC(C)C)C(=O)O [LYS Tri salt] (For-MDGCEL-OH)	4,25 area%	1,10 area%	1,80 area%	92,29 area%	8,45 area%	1,26 area%	3,40 area%	84,97 area%
